Laboratory results published in patent US20240108740A1, “THERAPEUTIC COMPOSITIONS INCLUDING SPN10 AND USES THEREOF” (Stealth BioTherapeutics Inc., priority 2022, published 2024).
Residues, ends and D or L forms follow the SMILES beside them.

Key:
Guinea pig hearts = assay: Example 14: ischemia-reperfusion-induced myocardial stunning
Protocol: Guinea pig hearts will be rapidly isolated, and the aorta will be cannulated in situ and perfused in a retrograde fashion with an oxygenated Krebs-Henseleit at constant pressure (40 cm H2O). Contractile force will be measured with a small hook inserted into the apex of the left ventricle and a silk ligature connected to a force-displacement transducer. Coronary flow will be measured by timing the collection of pulmonary artery effluent.
Hearts will be perfused with peptide conjugates (1-100 nM); aromatic-cationic peptides (an equivalent molar dose of aromatic-cationic peptide based on the concentration of the aromatic-cationic peptide administered in the peptide conjugate treatment group); SPN10(s) (an equivalent molar dose of SPN10 based on the concentration of SPN10 administered in the peptide conjugate treatment group); or SPN10(s) in combination with aromatic-cationic peptides (e.g., an equivalent molar dose of SPN10 based on the concentration of SPN10 administered in the peptide conjugate treatment group and an equivalent molar dose of aromatic-cationic peptide based on the concentration of aromatic-cationic peptide administered in the peptide conjugate treatment group) for 30 minutes and then subjected to 30 minutes of global ischemia. Reperfusion will […] be performed using perfusion buffer lacking both peptide conjugates and SPN10(s) (with or without aromatic-cationic peptides).

CD-1 mice = assay: Example 7: streptozotocin (STZ)-induced diabetes, renal damage; assay type: in vivo, mouse; settings: STZ-treated mice
Protocol: Streptozotocin (STZ) will be used to induce diabetes in mice. […] groups of CD-1 mice will be studied: Group I—no STZ treatment; Group II—STZ (50 mg/kg, i.p.) will be given once daily for 5 days; Group III—STZ (50 mg/kg, i.p.) will be given once daily for 5 days, +peptide conjugates (3 mg/kg, i.p.) will be given once daily for 16 days; Group IV—STZ (50 mg/kg, i.p.) will be given once daily for 5 days, +aromatic-cationic peptides (an equivalent molar dose of aromatic-cationic peptide based on the concentration of the aromatic-cationic peptide administered in the peptide conjugate treatment group) will be given once daily for 16 days; Group V—STZ (50 mg/kg, i.p.) will be given once daily for 5 days, +SPN10 (an equivalent molar dose of SPN10 based on the concentration of SPN10 administered in the peptide conjugate treatment group) will be given once daily for 16 days; Group VI—STZ (50 mg/kg, i.p.) will be given once daily for 5 days, +SPN10(s) in combination with aromatic-cationic peptides (e.g., an equivalent molar dose of SPN10 based on the concentration of SPN10 administered in the peptide conjugate treatment group and an equivalent molar dose of aromatic-cationic peptide based on the concentration of aromatic-cationic peptide administered in the peptide conjugate treatment group) will be given once daily for 16 days. It is anticipated that STZ treatment will result in a progressive increase in blood glucose. Animals will be sacrificed after 3 weeks and kidney tissues preserved for histopathology. Kidney sections will be examined by Periodic Schiff (PAS) staining for renal tubular brush border.
It is anticipated that STZ treatment will induce significant apoptosis in tubular epithelial cells. Kidney sections will be examined for apoptosis using a TUNEL assay as described herein. It is anticipated that kidney sections from mice treated with STZ will show a large number of apoptotic nuclei in the proximal tubules, compared to non-STZ treated controls.

Gαq mice = assay: Gαq overexpression-induced heart failure; assay type: in vivo, mouse; settings: administered from 12 to 16 weeks of age
Description: It is anticipated that peptide conjugates, aromatic-cationic peptides or SPN10(s) (with or without aromatic-cationic peptides) will partially rescue Gαq overexpression-induced heart failure. Gαq protein is coupled to receptors for catecholamines and Ang II, all of which are known to be key mediators in hypertensive cardiovascular diseases. To extend these observations to a model of chronic catecholamine/Ang II stimulation, a genetic mouse model with cardiac specific overexpression of Gαq will be used, which causes heart failure in mice by 14-16 weeks of age. The Gαq mice in this study will have impairment of systolic function at 16 weeks age, which will be shown by a substantial decline in FS, with enlargement of the LV chamber, impairment of diastolic function indicated by decreased Ea/Aa, and worsening of myocardial performance index (MPI).

isolated mitochondria = assay: Example 13: mitochondrial swelling (A540) and cytochrome c release (ELISA)
Description: MPT pore opening results in mitochondrial swelling. […] Mitochondrial suspensions will be centrifuged and the amount of cytochrome c in the pellet and supernatant will be determined using a commercially available ELISA kit.

Sprague Dawley rats = assay: Example 45: hypermetabolism after burn injury (indirect calorimetry); assay type: in vivo, rat; settings: 30% total body surface area burn; IV every 12 hours for three days
Protocol: Sprague Dawley rats will be randomized into the following groups; sham-burn (SB), burn with saline treatment (B), burn with peptide conjugate-treatment (BP), burn with aromatic-cationic peptides (BP2), burn with SPN10(s) (BP3), burn with SPN10(s)+aromatic-cationic peptides (BP4). Catheters will be surgically placed into jugular vein and carotid artery. Band BP, BP2, BP3 and BP4 animals will receive 30% total body surface area full thickness burns by immersing the dorsal part into 100° C. water for 12 seconds with immediate fluid resuscitation. […] The EE of the animals will be monitored for 12 hours in a TSE Indirect Calorimetry System (TSE Co., Germany).

With `N=C(N)NCCC[C@H](NC(=O)[C@@H](N)Cc1c[nH]c2ccccc12)C(=O)N[C@@H](Cc1c[nH]c2ccccc12)C(=O)N[C@@H](CCCCN)C(N)=O` [SPN10, H-L-Trp-L-Arg-L-Trp-L-Lys-NH2] (H-WRWK-NH2) the cardiac stunning (Guinea pig hearts) was “complete inhibition of cardiac stunning”, the “coronary flow during reperfusion” value (Guinea pig hearts) was “well-sustained throughout the reperfusion period” and the heart rate (Guinea pig hearts) was “no decrease in heart rate”. The “contractile force during the reperfusion period” value (Guinea pig hearts; 30 minutes perfusion, 30 minutes global ischemia) was “improved compared to untreated controls”, the “apoptotic cells in the proximal tubule (TUNEL)” value (CD-1 mice) was “dramatically reduce apoptotic cells” and the tubular epithelial nuclei (CD-1 mice) was “appear normal”. The “loss of brush border in proximal tubules (PAS)” value (CD-1 mice; daily treatment) was “prevent the loss of brush border”, the LV chamber enlargement (Gαq mice) was “slightly reduced” and the “systolic function and myocardial performance” value (Gαq mice) was “significantly ameliorate systolic function and improve myocardial performance”. The “mitochondrial swelling induced by MPP^+” value (isolated mitochondria) was “prevent mitochondrial swelling”, the “swelling and cytochrome c release induced by Ca^2+ overload” value (isolated mitochondria; pre-treatment) was “inhibit swelling and cytochrome c release” and the “increase in energy expenditure (EE) after burn” value (Sprague Dawley rats) was “attenuate or prevent this effect”.
